These results are taken from US7692004B2, “Use of metal complex compounds as oxidation catalysts” (Ciba Specialty Chemicals Corporation, priority 2001, dated 2010).

Assay [1] is described as follows: Bleaching action in washing agents (LINITEST, DY increase). The following applies: 1:1 Mn complex with ligand, H2O2 8.6 mmol/l, 30 minutes at 40° C. The procedure:
7.5 g of white cotton fabric and 2.5 g of tea-stained cotton fabric are treated in 80 ml of washing liquor. The liquor contains a standard washing agent (ECE, 456 IEC) in a concentration of 7.5 g/l. The hydrogen peroxide concentration is 8.6 mmol/l. […] The washing process is carried out in a steel beaker in a LINITEST apparatus for 30 minutes at 40° C. For evaluating the bleaching results, the increase in the lightness DY (difference in lightness according to CIE) of the stains brought about by the treatment is determined spectrophotometrically in comparison with values obtained without the addition of catalyst.

The nature of assay [2]: Cleaning performance on soiled surfaces at 53° C. The following applies: for Difference (rating minus rating of reference): 1:1 manganese complex 7.3 μM, 53° C., reference = catalyst-free system; for Rating: 1:1 manganese complex with ligand 7.3 μM, H2O2 1.1 mM, pH 10.0, 23° to 53° C., visual scale 1 (no cleaning) to 10 (clean). On the procedure: (§1) A tea-stained cup is filled with 100 ml of a buffer solution (10 mM carbonate, pH=10.0) containing 1.1 mM of hydrogen peroxide and 7.3 μM of 1:1 manganese complex (prepared as described in Application Example 2). Using a thermostat, the temperature of the solution is raised from 23° to 53° C. over a period of 12 minutes and maintained at the final temperature for 23 minutes. After rinsing and drying in air, the results are evaluated visually on a scale of 1 (no cleaning) to 10 (clean). The catalyst-free system is used as reference.

Assay [3] is described as follows: Cleaning performance on soiled surfaces at 23° C. The following applies: 0.16 g/l, constant 23° C., 45 minutes. On the procedure:
as §1
The procedure is as in Application Example 3 but the cleaning is carried out at a constant temperature of 23° C. (duration: 45 minutes).

Assay [4] is described as follows: Catalytic bleaching of cellulose. The following applies: catalytically bleached; 20 μM catalyst, 8.6 mM H2O2, pH 10.0, 40° C., 30 minutes; untreated sample 63.4. The procedure:
20 g of cellulose [TPP-CT CSF129, Ref. No. P-178635 (ISO 57.4)] are steeped in a litre of water for 65 hours and then stirred in a mixer for 2 minutes to give a paste-like pulp. A bleaching bath containing 50 g of the pulp so prepared in 180 ml of water, 100 μM of Dequest 2041 (sequestering agent), 8.6 mM of hydrogen peroxide and 20 μM of catalyst from Example 35 is maintained at 40° C. for 30 minutes. At the same time 1N sodium hydroxide solution is metered-in in such a manner that a pH of 10.0 is maintained. Filtration and air-drying are then carried out. A sample that has been compressed to form a circular sheet of 10 cm diameter is then tested for the lightness Y obtained (according to CIE, reflectance spectroscopy).

Assay [5] can be described thus: Decomposition of hydrogen peroxide (iodometric). The following applies: 1:1 manganese complex with ligand 7.3 μM, initial H2O2 1.1 mM. The procedure: as §1
The procedure is as in Application Example 3 but the consumption of H2O2 is determined iodometrically.

Assay [6] can be described thus: Activity of the manganese catalysts after the bleaching cycle. The conditions noted are these: for Difference DDY: versus H2O2 without Mn complex. On the procedure: 7.5 g of white cotton fabric and 2.5 g of tea-stained cotton fabric are treated in 80 ml of washing liquor. The liquor contains a standard washing agent (ECE, 456 IEC) in a concentration of 7.5 g/l. The hydrogen peroxide concentration is 8.6 mmol/l. The catalyst concentration (1:1 complex of manganese(II) chloride tetrahydrate with the ligand in question, prepared in methanolic solution with the addition of a small amount of lithium hydroxide) is 50 μmol/l. The washing process is carried out in a steel beaker in a LINITEST apparatus for 30 minutes at 40° C. For evaluating the bleaching results, the increase in the lightness DY (difference in lightness according to CIE) of the stains brought about by the treatment is determined spectrophotometrically in comparison with values obtained without the addition of catalyst.
The procedure as described in Application Example 2 is carried out for the 1st cycle, the cotton fabric is removed and for the 2nd cycle the procedure is carried out afresh with a new, as yet untreated cotton fabric. The DY values are determined as described in Application Example 2.

Assay [7] in a line: Action as catalyst for DTI (dye transfer inhibition). The conditions noted are these: 1:1 manganese complex 50 μmol/l; H2O2 8.6 mmol/l; Direct Brown 172 10 mg/l; 30 minutes at 40° C. On the procedure: 7.5 g of white cotton fabric are treated in 80 ml of washing liquor. The liquor contains a standard washing agent (ECE, 456 IEC) in a concentration of 7.5 g/l. The hydrogen peroxide concentration is 8.6 mmol/l. The catalyst concentration (of manganese(II) chloride tetrahydrate with the ligand, prepared in methanolic solution with the addition of a small amount of lithium hydroxide) is 50 μmol/l, and a solution of the test dye Direct Brown 172 having 10 mg/l of the 250% formulation. The washing process is carried out in a steel beaker in a LINITEST apparatus for 30 minutes at 40° C. For testing the activity of the catalysts, the DTI activity is determined.
The reflection spectra of the samples were measured using a SPECTRAFLASH 2000 and converted into lightness values (D65/10) in accordance with a standard CIE procedure.

A short description of assay [8]: Catalytic action for the epoxidation of olefins. The conditions noted are these: ligand 0.05 mmol with manganese(II) acetate tetrahydrate 0.04 mmol, sodium ascorbate, H2O2; 14 hours at room temperature; by 1H-NMR. The procedure:
17 mg (0.05 mmol) of 2-[(2-hydroxy-ethyl)-[2,2′;6′,2″]terpyridin-4′-yl-amino]-ethanol (L7, Example 7), 10 mg (0.04 mmol) of manganese(II) acetate tetrahydrate and 0.32 mmol of sodium ascorbate are added to a solution of 1.09 ml (10 mmol) of ethyl acrylate in 0.5 ml of acetonitrile. The mixture is cooled in an ice bath and a 30% strength hydrogen peroxide solution (2.27 g, 20 mmol) is added dropwise thereto in the course of 20 minutes. The mixture is then left for 14 hours at room temperature, then diluted with diethyl ether and the phases are separated. The organic extract is dried over sodium sulfate, filtered and concentrated. The catalytic turnover number for the epoxide formed, ethyl oxirane-2-carboxylate, is determined by comparing the intensity of the epoxide methine proton at 3.34-3.38 ppm with the ligand signal L7 at 8.53 ppm as reference and is 35±8. Ethyl oxirane-2-carboxylate, epoxide signals ^1H-NMR (360 MHz, CDCl3): 2.68-2.89 (m, 2H, CH2); 3.34-3.38 (m, 1H, CH). Without the addition of ligand, epoxide cannot be detected.

[9] abbreviates: 50 μmol/l, ECE washing agent 7.5 g/l, versus no catalyst.

As to `CCOc1ccnc(-c2cc(N(CCO)CCO)cc(-c3cc(OCC)ccn3)n2)c1` [Ligand L28, 2-[(4,4″-Diethoxy-[2,2′;6′,2″]terpyridin-4′-yl)-(2-hydroxy-ethyl)-amino]-ethanol], the DY increase in assay [1] (setting [9]) is 4.3. In assay [2], the “Difference (rating minus rating of reference)” value is 2.2 and the Rating is 5.2 (3.0).
For the compound `O=c1cc(-c2cc(N3CCCC3)ccn2)[nH]c(-c2cc(N3CCCC3)ccn2)c1` [Ligand L18, 4,4″-Di-pyrrolidin-1-yl-1′H-[2,2′;6′,2″]terpyridin-4′-one], the DY increase in assay [1] (setting [9]) is recorded as 3.0.
Same read-out and setting: under `CN1CCN(c2cc(-c3ccccn3)nc(-c3ccccn3)c2)CC1` [Ligand L8, 4′-(4-Methyl-piperazin-1-yl)-[2,2′;6′,2″]terpyridine] stands 5.0.
For the compound `c1ccc(-c2cc(N3CCCCC3)cc(-c3ccccn3)n2)nc1` [Ligand L10, 4′-Piperidin-1-yl-[2,2′;6′,2″]terpyridine], the DY increase in assay [1] (setting [9]) came to 4.4. In addition, in assay [2], the “Difference (rating minus rating of reference)” value is reported as 2.1 and the Rating is 5.2 (3.1).
As for `CN(CCO)c1ccnc(-c2cc(=O)cc(-c3cc(N(C)CCO)ccn3)[nH]2)c1` [Ligand L19, 4,4″-Bis[(2-hydroxy-ethyl)-methyl-amino]-1′H-[2,2′;6′,2″]terpyridin-4′-one], the DY increase in assay [1] (half concentration used) is 5.3^1).
Turning to `CC(=O)N(CCN(C(C)=O)C(C)=O)C(C)=O` [N,N′-tetraacetylethylenediamine (TAED), N,N,N′,N′-tetraacetylethylenediamine], the “Difference (rating minus rating of reference)” value in assay [3] worked out at 2.9. Further, in assay [3] (scale 1 to 10), the Rating is 6.8 (3.9).
`NNc1cc(-c2ccccn2)nc(-c2ccccn2)c1` [Ligand L4, [2,2′;6′,2″]Terpyridin-4′-yl-hydrazine] gave a DY increase in assay [1] (setting [9]) of 5.0.
Same read-out and setting: in the case of `CN(CCO)c1ccnc(-c2cc(N(C)CCO)cc(-c3cc(N(C)CCO)ccn3)n2)c1` [Ligand L25, 2-({4′,4″-Bis[(2-hydroxy-ethyl)methyl-amino]-[2,2′;6′,2″]terpyridin-4-yl}-methylamino)-ethanol] it was 6.2.
Consider `COc1ccccc1-c1cccc(-c2cccc(-c3cccc(-c4ccccc4OC)n3)n2)n1` [Ligand L29, 6,6″-Bis(2-methoxyphenyl)-2,2′:6′:2″-terpyridine], for which the “Lightness Y” value in assay [4] came to 66.9.
As for `O=c1cc(-c2ccccn2)[nH]c(-c2ccccn2)c1` [Ligand L1, 1′H-[2,2′;6′,2″]Terpyridin-4′-one], in assay [1] (setting [9]), the DY increase was found to be 5.0. For the same compound, in assay [2], the “Difference (rating minus rating of reference)” value is 1.9 and the Rating was 5.0 (3.1). In addition, the “Residual H2O2” value in assay [5] (procedure of Application Example 3) was found to be 0.73 mM. In assay [5] (H2O2 consumption), this compound displayed a Consumption of 34%.
In the case of `OCCN(CCO)c1cc(-c2ccccn2)nc(-c2ccccn2)c1` [Ligand L7, 2-[(2-Hydroxy-ethyl)-[2,2′;6′,2″]terpyridin-4′-yl-amino]-ethanol], in assay [1] (setting [9]), the DY increase stood at 5.6. In addition, the “Difference (rating minus rating of reference)” value in assay [2] is recorded as 3.6. Further, the Rating in assay [2] is reported as 6.9 (3.3). For the same compound, the “Bleaching value with H2O2 and the 1:1 Mn complex (DY)” value was “DY = 23.0” in assay [6] (1st cycle) and “DY = 19.0” in assay [6] (2nd cycle, same liquor, new fabric). In addition, the “Difference DDY” value in assay [6] (1st cycle) is on record as 8.1; in assay [6] (2nd cycle), 8.0. Further, the DTI activity a in assay [7] was found to be 90%. For the same compound, in assay [8], the “Catalytic turnover number for the epoxide formed, ethyl oxirane-2-carboxylate” value is 35±8.
Compound `c1ccc(-c2cc(N3CCCCCC3)cc(-c3ccccn3)n2)nc1` [Ligand L9, 4′-Azepan-1-yl-[2,2′;6′,2″]terpyridine] registered a DY increase in assay [1] (setting [9]) of 3.8.
In the case of `c1ccc(-c2cc(N3CCOCC3)cc(-c3ccccn3)n2)nc1` [Ligand L11, 4′-Morpholin-4-yl-[2,2′;6′,2″]terpyridine], the DY increase in assay [1] (setting [9]) amounted to 5.5. Besides, in assay [2], the “Difference (rating minus rating of reference)” value turned out to be 2.4 and the Rating is listed as 5.7 (3.3).
The compound `CN(CCO)c1cc(-c2ccccn2)nc(-c2ccccn2)c1` [Ligand L5, 2-(Methyl-[2,2′;6′,2″]terpyridin-4′-yl-amino)-ethanol] showed a DY increase in assay [1] (setting [9]) of 5.2.
`c1ccc(-c2cc(N3CCCC3)cc(-c3ccccn3)n2)nc1` [Ligand L6, 4′-Pyrrolidin-1-yl-[2,2′;6′,2″]terpyridine] showed a DY increase in assay [1] (setting [9]) of 5.8. Moreover, in assay [2], the “Difference (rating minus rating of reference)” value came out at 3.9 and the Rating is reported as 7.2 (3.3).
The compound `CCOc1ccnc(-c2cc(=O)cc(-c3cc(OCC)ccn3)[nH]2)c1` [Ligand L17, 4,4″-Diethoxy-1′H-[2,2′;6′,2″]terpyridin-4′-one] showed a DY increase in assay [1] (setting [9]) of 5.3.
